The Kd is the free concentration of one partner at which half of the binding sites on the other are occupied at equilibrium, for simple one-to-one binding.

This passage reports Kd and chemical shift perturbation results from PMC3131587, “Sulfotyrosine Recognition as Marker for Druggable Sites in the Extracellular Space” (International Journal of Molecular Sciences, 2011).

Assay [1] concerns the target CCL5 (Homo sapiens) (UniProt P13501). Particulars: cited from earlier work.
The target in assay [2] is T1, CXCL12 (Homo sapiens, UniProt P48061).
T1 construct: [U-15N] recombinant mature chemokine, signal peptide removed; predominantly monomer under assay conditions
The assay can be described thus: 2D 1H-15N HSQC NMR titration. The assay is classed as binding. Particulars: 25 mM d-MES pH 6.8, 37 °C; 250 μM protein; 0-100 mM ligand; shifts at the sTyr21 and sTyr12 sites.

The target in assay [3] is T2, CX3CL1 (Homo sapiens, UniProt P78423).
T2 sequence (P78423 25-100): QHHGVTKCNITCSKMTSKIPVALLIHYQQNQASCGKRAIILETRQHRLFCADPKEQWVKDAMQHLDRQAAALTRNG
The assay can be described thus: 2D 1H-15N HSQC NMR titration. It is filed as binding. Particulars: unbuffered pH 3.6, 25 °C; 250 μM protein; 0-100 mM ligand.

The target of assay [4] is T3, CCL5 (Homo sapiens, UniProt P13501).
T3 construct: [U-15N] recombinant mature chemokine, signal peptide removed; dimeric in the assay
T3 sequence (P13501 24-91): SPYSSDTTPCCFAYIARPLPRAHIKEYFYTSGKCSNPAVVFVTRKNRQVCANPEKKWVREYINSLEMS
Put plainly: 2D 1H-15N HSQC NMR titration. Particulars: 50 mM NaPO4 pH 3.2, 25 °C; 125 μM protein (dimeric); 0-100 mM ligand. The assay is classed as binding.

CCL5 (from UniProt P13501): in assay [1], the Kd was 35 µM.
On to `N[C@@H](Cc1ccc(OS(=O)(=O)O)cc1)C(=O)O` [sulfotyrosine], for which the chemical shift perturbation result in assay [2] was “HSQC spectral overlays (Figure 4A) demonstrate significant chemical shift perturbations in the chemokine”; in assay [3], “Sulfotyrosine titration produced significant perturbations in CX3CL1 residues”; in assay [4], “Residues His23, Lys45, and Arg47 identified in our titration”.
